Values quoted from earlier work as cited in patent US6691638B2, “Methods for gamete production in birds” (North Carolina State University, priority 2000, dated 2004).

Tests used:
[1] = forms a suspension; cited from earlier work
PGCs [2] = details: administration in rats; cited from earlier work
[3] = in vivo; cited from earlier work
quail eggs = details: albumen suspension of BU; cited from earlier work
gonadal germ cells = details: cited from earlier work
chick embryos = details: injection into the yolk sac; cited from earlier work
germ cells = details: 100 μg BU in sesame oil; cited from earlier work
PGCs [4] = details: cited from earlier work
[5] = 50 μg BU suspended in sesame oil, 6 day-old chick embryos
[6] = after injection of germinal crescent cells into BU-treated embryos

Structure (SMILES): CS(=O)(=O)OCCCCOS(C)(=O)=O [BU, 1,4-butanediol dimethane sulfonate]
- Solubility in aqueous solutions [1]: relatively insoluble
- Effect on development of PGCs (PGCs [2]): markedly impair
- Half-life [3]: approximately 10 hours
- Effect on hatchability (quail eggs): significant declines in hatchability
- Increase of the rate of germline chimerism (gonadal germ cells; compared to non-BU treated embryos, estimated): 3.5 fold
- Effect on gonadal germ cells in chick embryos (gonadal germ cells; injection of 25, 50 and 250 μg BU): significantly reduced
- Teratogenic effect (chick embryos): multiple malformations
- Sterility index (germ cells): ≥ 95%
- Reduction of PGCs in the left gonad (PGCs [4]; [5]): 75%
- Reduction of PGCs in the right gonad (PGCs [4]; [5]): 78%
- PGC numbers, left gonad, % of controls (PGCs [4]; [6]): 72 % of controls
- PGC numbers, right gonad, % of controls (PGCs [4]; [6]): 115 % of controls
